From ChEMBL document CHEMBL1201862, “PubChem BioAssay data set” (2004)
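Step 1: Grow cells in 96-well plates. Step 2: Expose to compound for 48 hours at 5 concentrations. Step 3: Interpolate endpoints linearly; if unreached, use highest concentration. The concentration for 50% growth inhibition is given as GI50.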 Calls of active or inactive are those of the source. Rule as the data show it: active = GI50 up to about 1.1 µM and inactive = higher.

Tests used:
Assay in all cases: inhibition of tumour cell growth, NCI panel, 48 h
CAKI-1 = tested on: CAKI-1
EKVX = tested on: EKVX
HOP-62 = tested on: HOP-62
KM12 = tested on: KM12
LOX IMVI = tested on: LOX IMVI
NCI-H226 = tested on: NCI-H226
NCI-H23 = tested on: NCI-H23
NCI/ADR-RES = tested on: NCI/ADR-RES
OVCAR-4 = tested on: OVCAR-4
OVCAR-5 = tested on: OVCAR-5
PC-3 = tested on: PC-3
SF-268 = tested on: SF-268
SF-295 = tested on: SF-295
SF-539 = tested on: SF-539
SK-MEL-28 = tested on: SK-MEL-28
SK-MEL-5 = tested on: SK-MEL-5
SN12C = tested on: SN12C
SR = tested on: SR
U-251 = tested on: U-251
UACC-62 = tested on: UACC-62

| Structure (SMILES) | GI50 (CAKI-1) | GI50 (EKVX) | GI50 (HOP-62) | GI50 (KM12) | GI50 (LOX IMVI) | GI50 (NCI-H226) | GI50 (NCI-H23) | GI50 (NCI/ADR-RES) | GI50 (OVCAR-4) | GI50 (OVCAR-5) | GI50 (PC-3) | GI50 (SF-268) | GI50 (SF-295) | GI50 (SF-539) | GI50 (SK-MEL-28) | GI50 (SK-MEL-5) | GI50 (SN12C) | GI50 (SR) | GI50 (U-251) | GI50 (UACC-62) |
| --- | --- | --- | --- | --- | --- | --- | --- | --- | --- | --- | --- | --- | --- | --- | --- | --- | --- | --- | --- | --- |
| CCCCC(=O)OC[n+]1cccc(-c2c(COC(=O)NC(C)C)c(COC(=O)NC(C)C)c3n2CCC3)c1 | 12.3 µM (inactive) | > 100 µM (inactive) | 56.1 µM (inactive) | > 100 µM (inactive) | 21.7 µM (inactive) | 55.7 µM (inactive) | 26.2 µM (inactive) | 34.9 µM (inactive) | 31.3 µM (inactive) | > 68.1 µM (inactive) | 60.7 µM (inactive) | 24.8 µM (inactive) | 52.2 µM (inactive) | 28.6 µM (inactive) | > 100 µM (inactive) | 35.6 µM (inactive) | 31.8 µM (inactive) | 4.72 µM (inactive) | 45.3 µM (inactive) | 20 µM (inactive) |
| O=C(NC(O)(C(F)(F)F)C(F)(F)F)c1ccccc1 | > 100 µM (inactive) | > 100 µM (inactive) | > 100 µM (inactive) | > 100 µM (inactive) | > 100 µM (inactive) | 51.6 µM (inactive) | > 100 µM (inactive) | > 100 µM (inactive) | > 100 µM (inactive) | > 100 µM (inactive) | > 100 µM (inactive) | > 100 µM (inactive) | > 100 µM (inactive) | > 100 µM (inactive) | > 100 µM (inactive) | > 100 µM (inactive) | > 100 µM (inactive) | > 100 µM (inactive) | > 100 µM (inactive) |  |
| O=C(OCc1ccccc1)N(CCCCN(CCCNCc1ccccc1)C(=O)OCc1ccccc1)CCCNCc1ccccc1 | 1.42 µM (inactive) | 1.49 µM (inactive) | 1.6 µM (inactive) | 0.43 µM (active) | 0.22 µM (active) | 1.05 µM (active) | 1.77 µM (inactive) | 1.71 µM (inactive) | 1.66 µM (inactive) | 1.63 µM (inactive) | 1.11 µM (active) | 1.57 µM (inactive) | 12.2 µM (inactive) | 0.243 µM (active) | 1.62 µM (inactive) | 0.697 µM (active) | 0.834 µM (active) | 0.191 µM (active) | 0.258 µM (active) | 0.881 µM (active) |
| Nc1ccc(S(=O)(=O)Nc2ccc(Nc3c4ccccc4nc4ccccc34)cc2)cc1 | < 0.0126 µM (active) | 1.82 µM (inactive) | < 0.0119 µM (active) | 0.169 µM (active) | 0.015 µM (active) | 0.0101 µM (active) | 0.0185 µM (active) | 4.83 µM (inactive) | 3.66 µM (inactive) | 0.164 µM (active) | 0.0555 µM (active) | 0.0168 µM (active) | 0.0127 µM (active) | 0.0166 µM (active) | 0.738 µM (active) | 0.0199 µM (active) | < 0.01 µM (active) | < 0.01 µM (active) | 0.0154 µM (active) | 0.0213 µM (active) |
| CC1(c2ccc(Cl)cc2)CC(c2ccc(Cl)cc2)=C(C#N)C(=C(C#N)C#N)N1 (configuration not stated) | 16.8 µM (inactive) | 17.9 µM (inactive) | 7.36 µM (inactive) | 19.9 µM (inactive) | 17.3 µM (inactive) | 18.5 µM (inactive) | 17.3 µM (inactive) | 19.3 µM (inactive) | 14.8 µM (inactive) | 25.8 µM (inactive) | 16.4 µM (inactive) | 7.83 µM (inactive) | 14.7 µM (inactive) | 18.4 µM (inactive) | 32.7 µM (inactive) | 13.9 µM (inactive) | 15 µM (inactive) | 11.5 µM (inactive) | 12.2 µM (inactive) | 15.3 µM (inactive) |
| Cn1c2ccccc2n2c3nc4ccccc4nc3c(C#N)c12 | > 100 µM (inactive) | > 100 µM (inactive) | 10 µM (inactive) | 9.44 µM (inactive) | > 100 µM (inactive) | > 100 µM (inactive) | > 96.8 µM (inactive) | > 100 µM (inactive) | > 71.8 µM (inactive) | 10 µM (inactive) | > 96.8 µM (inactive) | 81.3 µM (inactive) | 88.3 µM (inactive) | 62.8 µM (inactive) | > 100 µM (inactive) | 4.4 µM (inactive) | > 94.2 µM (inactive) | 49.3 µM (inactive) | 74 µM (inactive) | 65.5 µM (inactive) |
| CCOC(=O)C(C#N)C1=CC(=O)C(=O)c2ccc(O)cc21 (configuration not stated) | > 100 µM (inactive) | > 100 µM (inactive) | > 100 µM (inactive) | > 100 µM (inactive) | 36.7 µM (inactive) | 41.2 µM (inactive) | 19.3 µM (inactive) | > 100 µM (inactive) | 58.9 µM (inactive) | > 100 µM (inactive) | > 100 µM (inactive) | > 100 µM (inactive) | 90.6 µM (inactive) | 55.3 µM (inactive) | > 100 µM (inactive) | 42.7 µM (inactive) | > 100 µM (inactive) | > 100 µM (inactive) | 48.5 µM (inactive) | 17.1 µM (inactive) |
| CC1=NN(c2cccc(Cl)c2)C2(C1=Cc1cccs1)C(Cl)C(=O)N2c1nc2ccccc2s1 (configuration not stated) | 23.5 µM (inactive) | 19.5 µM (inactive) | 27.6 µM (inactive) | 28.7 µM (inactive) | 19.6 µM (inactive) | 24.3 µM (inactive) | 21.3 µM (inactive) | 21.9 µM (inactive) | 28.9 µM (inactive) | 18.2 µM (inactive) | 20.9 µM (inactive) | 21.5 µM (inactive) | 19.6 µM (inactive) | 15.2 µM (inactive) | 39.4 µM (inactive) | 17.4 µM (inactive) |  | 18.5 µM (inactive) | 15.1 µM (inactive) |  |
| COC(=O)C1=C(C)NC(C)=C(C(=O)OC)C1c1nc2sccn2c1[N+](=O)[O-] | > 100 µM (inactive) | 96.4 µM (inactive) | > 100 µM (inactive) | > 100 µM (inactive) | > 100 µM (inactive) | > 100 µM (inactive) | > 100 µM (inactive) | > 100 µM (inactive) | > 100 µM (inactive) | > 100 µM (inactive) | > 100 µM (inactive) | > 100 µM (inactive) | > 100 µM (inactive) | 77.3 µM (inactive) | > 100 µM (inactive) | > 100 µM (inactive) | > 100 µM (inactive) | > 100 µM (inactive) | > 100 µM (inactive) | > 100 µM (inactive) |
| CC1=C(C#N)C2C(=C(C)N1)C(N)=Nc1ccccc12 (configuration not stated) | 49.8 µM (inactive) | 19.1 µM (inactive) | 67.3 µM (inactive) | 27.6 µM (inactive) | 36 µM (inactive) | 30 µM (inactive) | 55.2 µM (inactive) | > 100 µM (inactive) | 37.4 µM (inactive) | 70.5 µM (inactive) | 29.6 µM (inactive) | 39.4 µM (inactive) | 30.6 µM (inactive) | 29.7 µM (inactive) | 63.4 µM (inactive) | 30 µM (inactive) | 38.5 µM (inactive) | 41.1 µM (inactive) |  | 25.8 µM (inactive) |
| Cn1c(-c2c(C3=CC(=O)N(c4ccccc4)C3=O)c3ccccc3n2C)cc2ccccc21 | > 100 µM (inactive) | 4.51 µM (inactive) | > 100 µM (inactive) | 21.8 µM (inactive) | > 100 µM (inactive) | > 100 µM (inactive) | > 100 µM (inactive) | > 100 µM (inactive) | > 100 µM (inactive) | > 100 µM (inactive) | > 100 µM (inactive) |  | 34.1 µM (inactive) | > 100 µM (inactive) | > 100 µM (inactive) | > 100 µM (inactive) | > 100 µM (inactive) | 17.7 µM (inactive) | > 100 µM (inactive) | > 100 µM (inactive) |
| O=S1OC[C@H](CCCl)O1 (some centres not stated) | > 100 µM (inactive) | > 100 µM (inactive) | > 100 µM (inactive) | 13.8 µM (inactive) | 83.6 µM (inactive) | > 100 µM (inactive) | > 100 µM (inactive) | > 100 µM (inactive) | > 100 µM (inactive) | > 100 µM (inactive) | > 100 µM (inactive) |  | > 100 µM (inactive) | > 100 µM (inactive) | 69.5 µM (inactive) | > 100 µM (inactive) | > 100 µM (inactive) | > 100 µM (inactive) | > 100 µM (inactive) | > 100 µM (inactive) |
| CC[C@@]1(O)C(=O)OCc2c1cc1n(c2=O)Cc2c-1nc1ccccc1c2/C=N/NC(=O)c1ccc(N)cc1 | 0.0589 µM (active) |  | 0.0333 µM (active) | 9.4 µM (inactive) | 0.0273 µM (active) | 0.04 µM (active) | 0.0798 µM (active) | 0.392 µM (active) | 3.73 µM (inactive) | 5.22 µM (inactive) | 0.177 µM (active) | < 0.01 µM (active) | 0.123 µM (active) | < 0.01 µM (active) | 0.263 µM (active) | 0.136 µM (active) | 0.0543 µM (active) | < 0.01 µM (active) | < 0.0141 µM (active) | 0.0208 µM (active) |
| COC1/C=C\C=C(/C)C(=O)NC2=CC(=O)C(N)=C(CC(C)CC(OC)C(O)C(C)C=C(C)C1OC(N)=O)C2=O (configuration not stated) | 0.977 µM (active) | 3.97 µM (inactive) | < 0.0199 µM (active) | 0.0244 µM (active) | 0.0193 µM (active) | 5.87 µM (inactive) | < 0.0212 µM (active) | 28.7 µM (inactive) | 4.07 µM (inactive) | 0.375 µM (active) | 0.293 µM (active) | 0.419 µM (active) | 0.0295 µM (active) |  | < 0.0266 µM (active) | 0.042 µM (active) | 0.017 µM (active) | 0.0161 µM (active) | < 0.01 µM (active) | 0.0247 µM (active) |
